Species: Rattus norvegicus
Assay: DrugMatrix - Regimen: Daily Repeat
Format: toxicity, organism-based, Sprague-Dawley
Set-up: regimen Daily Repeat, gender Male, age 6-8 weeks
Details: in vivo, po, route oral GAVAGE, vehicle .5 % CMC; for BASOPHIL / EOSINOPHIL / ERYTHROCYTE COUNT / HEMATOCRIT / HEMOGLOBIN / LEUKOCYTE COUNT / LYMPHOCYTE / MEAN CORPUSCULAR HEMOGLOBIN / MEAN CORPUSCULAR HEMOGLOBIN CONCENTRATION / MEAN CORPUSCULAR VOLUME / MONOCYTE / NEUTROPHIL / PLATELET COUNT: tissue Blood; for ALANINE AMINOTRANSFERASE / ALBUMIN / ALKALINE PHOSPHATASE / ASPARTATE AMINOTRANSFERASE / BLOOD UREA NITROGEN / CHLORIDE / CHOLESTEROL / CREATINE PHOSPHOKINASE / CREATININE / GLUCOSE / PHOSPHORUS / POTASSIUM / SODIUM / TOTAL BILIRUBIN / TOTAL PROTEIN: tissue Plasma
[1] = 0 mg/kg, 72 h, dose level Control, time 3 day
[2] = 0 mg/kg, 120 h, dose level Control, time 5 day
[3] = 21 mg/kg, 72 h, dose level Low, time 3 day
[4] = 21 mg/kg, 120 h, dose level Low, time 5 day

`Cc1onc(-c2ccccc2)c1-c1ccc(S(N)(=O)=O)cc1` [VALDECOXIB] was tested, and the BASOPHIL [1] was 0.68%, the EOSINOPHIL [1] was 0.46% and the “ERYTHROCYTE COUNT” value [1] was 7.15 x10E6/uL. The HEMATOCRIT [1] was 45.44%, the HEMOGLOBIN [1] was 14.1 G/DL and the “LEUKOCYTE COUNT” value [1] was 9.78 x10E3/uL. For the same molecule, the LYMPHOCYTE [1] was 84.44%, the “MEAN CORPUSCULAR HEMOGLOBIN” value [1] was 19.72 pg and the “MEAN CORPUSCULAR HEMOGLOBIN CONCENTRATION” value [1] was 31 G/DL. The “MEAN CORPUSCULAR VOLUME” value [1] was 63.66 fL, the MONOCYTE [1] was 2.14% and the NEUTROPHIL [1] was 11.16%. The “PLATELET COUNT” value [1] was 1378.2 x10E3/uL, the “ALANINE AMINOTRANSFERASE” value [1] was 42.33 u/L and the ALBUMIN [1] was 3.8 G/DL. The “ALKALINE PHOSPHATASE” value [1] was 388.17 u/L, the “ASPARTATE AMINOTRANSFERASE” value [1] was 68 u/L and the “BLOOD UREA NITROGEN” value [1] was 16.17 mg/dL. The CHLORIDE [1] was 96.67 MEQ/L, the CHOLESTEROL [1] was 71 mg/dL and the “CREATINE PHOSPHOKINASE” value [1] was 156.17 u/L. It also gave a CREATININE [1] of 0.57 mg/dL, a GLUCOSE [1] of 193.67 mg/dL and a PHOSPHORUS [1] of 11.43 mg/dL. The POTASSIUM [1] was 7 MEQ/L, the SODIUM [1] was 140.33 MEQ/L and the “TOTAL BILIRUBIN” value [1] was 0.48 mg/dL. For the same molecule, the “TOTAL PROTEIN” value [1] was 6.8 G/DL, the BASOPHIL [2] was 1.47% and the EOSINOPHIL [2] was 1%. For the same molecule, the “ERYTHROCYTE COUNT” value [2] was 7.12 x10E6/uL, the HEMATOCRIT [2] was 45.47% and the HEMOGLOBIN [2] was 14.1 G/DL. For the same molecule, the “LEUKOCYTE COUNT” value [2] was 11.38 x10E3/uL, the LYMPHOCYTE [2] was 82.57% and the “MEAN CORPUSCULAR HEMOGLOBIN” value [2] was 19.82 pg. For the same molecule, the “MEAN CORPUSCULAR HEMOGLOBIN CONCENTRATION” value [2] was 31.02 G/DL, the “MEAN CORPUSCULAR VOLUME” value [2] was 63.88 fL and the MONOCYTE [2] was 2.2%. The NEUTROPHIL [2] was 11.97%, the “PLATELET COUNT” value [2] was 1267 x10E3/uL and the “ALANINE AMINOTRANSFERASE” value [2] was 38 u/L. The ALBUMIN [2] was 3.72 G/DL, the “ALKALINE PHOSPHATASE” value [2] was 391 u/L and the “ASPARTATE AMINOTRANSFERASE” value [2] was 65.83 u/L. For the same molecule, the “BLOOD UREA NITROGEN” value [2] was 14.17 mg/dL, the CHLORIDE [2] was 107.67 MEQ/L and the CHOLESTEROL [2] was 61 mg/dL. The “CREATINE PHOSPHOKINASE” value [2] was 148.33 u/L, the CREATININE [2] was 0.57 mg/dL and the GLUCOSE [2] was 177.17 mg/dL. It also gave a PHOSPHORUS [2] of 12.07 mg/dL, a POTASSIUM [2] of 7.2 MEQ/L and an SODIUM [2] of 151.5 MEQ/L. For the same molecule, the “TOTAL BILIRUBIN” value [2] was 0.58 mg/dL, the “TOTAL PROTEIN” value [2] was 6.72 G/DL and the BASOPHIL [3] was 0.53%. For the same molecule, the EOSINOPHIL [3] was 0.4%, the “ERYTHROCYTE COUNT” value [3] was 6.91 x10E6/uL and the HEMATOCRIT [3] was 43%. For the same molecule, the HEMOGLOBIN [3] was 13.7 G/DL, the “LEUKOCYTE COUNT” value [3] was 11.32 x10E3/uL and the LYMPHOCYTE [3] was 84.1%. For the same molecule, the “MEAN CORPUSCULAR HEMOGLOBIN” value [3] was 19.8 pg, the “MEAN CORPUSCULAR HEMOGLOBIN CONCENTRATION” value [3] was 31.87 G/DL and the “MEAN CORPUSCULAR VOLUME” value [3] was 62.2 fL. For the same molecule, the MONOCYTE [3] was 2.17%, the NEUTROPHIL [3] was 11.67% and the “PLATELET COUNT” value [3] was 1322.33 x10E3/uL. The “ALANINE AMINOTRANSFERASE” value [3] was 35 u/L, the ALBUMIN [3] was 3.63 G/DL and the “ALKALINE PHOSPHATASE” value [3] was 309 u/L. The “ASPARTATE AMINOTRANSFERASE” value [3] was 58.33 u/L, the “BLOOD UREA NITROGEN” value [3] was 13 mg/dL and the CHLORIDE [3] was 95.33 MEQ/L. For the same molecule, the CHOLESTEROL [3] was 78.33 mg/dL, the “CREATINE PHOSPHOKINASE” value [3] was 150 u/L and the CREATININE [3] was 0.47 mg/dL. It also gave a GLUCOSE [3] of 190 mg/dL, a PHOSPHORUS [3] of 11.8 mg/dL and a POTASSIUM [3] of 6.2 MEQ/L. For the same molecule, the SODIUM [3] was 139 MEQ/L, the “TOTAL BILIRUBIN” value [3] was 0.2 mg/dL and the “TOTAL PROTEIN” value [3] was 6.43 G/DL. The BASOPHIL [4] was 1.7%, the EOSINOPHIL [4] was 5.9% and the “ERYTHROCYTE COUNT” value [4] was 7.33 x10E6/uL. For the same molecule, the HEMATOCRIT [4] was 45.75%, the HEMOGLOBIN [4] was 14.55 G/DL and the “LEUKOCYTE COUNT” value [4] was 9.46 x10E3/uL. For the same molecule, the LYMPHOCYTE [4] was 42.8%, the “MEAN CORPUSCULAR HEMOGLOBIN” value [4] was 19.85 pg and the “MEAN CORPUSCULAR HEMOGLOBIN CONCENTRATION” value [4] was 31.85 G/DL. The “MEAN CORPUSCULAR VOLUME” value [4] was 62.35 fL, the MONOCYTE [4] was 1.7% and the NEUTROPHIL [4] was 47.25%. The “PLATELET COUNT” value [4] was 1408 x10E3/uL, the “ALANINE AMINOTRANSFERASE” value [4] was 30.33 u/L and the ALBUMIN [4] was 3.67 G/DL. The “ALKALINE PHOSPHATASE” value [4] was 296.33 u/L, the “ASPARTATE AMINOTRANSFERASE” value [4] was 52.67 u/L and the “BLOOD UREA NITROGEN” value [4] was 12.67 mg/dL. For the same molecule, the CHLORIDE [4] was 104 MEQ/L, the CHOLESTEROL [4] was 61 mg/dL and the “CREATINE PHOSPHOKINASE” value [4] was 128.67 u/L. The CREATININE [4] was 0.43 mg/dL, the GLUCOSE [4] was 196 mg/dL and the PHOSPHORUS [4] was 12.73 mg/dL. The POTASSIUM [4] was 7.17 MEQ/L, the SODIUM [4] was 149.67 MEQ/L and the “TOTAL BILIRUBIN” value [4] was 0.43 mg/dL. The “TOTAL PROTEIN” value [4] was 6.7 G/DL.
